“And” between values parts separate entries of the source, which are not always exact repeats. Equal values may be shown once.
Settings: Liquid; for viscosity: Falling or rolling sphere viscometry; for mass density: 101.33 kPa, Vibrating tube method

CCCC[n+]1ccn(C)c1.O=S(=O)([N-]S(=O)(=O)C(F)(F)F)C(F)(F)F
Settings | viscosity
273.15 K, 100 kPa | 191.3 mPa·s and 191.6 mPa·s
278.15 K, 100 kPa | 140.4 mPa·s
283.15 K, 100 kPa | 106.1 mPa·s
283.15 K, 24300 kPa | 146.8 mPa·s
283.15 K, 49900 kPa | 205.8 mPa·s
283.15 K, 74100 kPa | 280.3 mPa·s
288.15 K, 100 kPa | 81.6 mPa·s
293.15 K, 100 kPa | 63.8 mPa·s and 63.9 mPa·s
298.15 K, 100 kPa | 50.9 mPa·s and 51 mPa·s and 51.1 mPa·s
298.15 K, 24300 kPa | 68.1 mPa·s
298.15 K, 49300 kPa | 90.9 mPa·s
298.15 K, 76900 kPa | 124 mPa·s
298.15 K, 101500 kPa | 161.5 mPa·s
298.15 K, 126400 kPa | 210.3 mPa·s
298.15 K, 150200 kPa | 269.4 mPa·s
303.15 K, 100 kPa | 41.5 mPa·s
313.15 K, 100 kPa | 28.5 mPa·s
323.15 K, 100 kPa | 20.5 mPa·s and 20.6 mPa·s and 20.7 mPa·s
323.15 K, 26400 kPa | 26.9 mPa·s
323.15 K, 35600 kPa | 29.2 mPa·s
323.15 K, 52000 kPa | 34.6 mPa·s
323.15 K, 53900 kPa | 34.8 mPa·s
323.15 K, 69800 kPa | 40.2 mPa·s
323.15 K, 75000 kPa | 41.6 mPa·s
323.15 K, 101600 kPa | 53.9 mPa·s
323.15 K, 103600 kPa | 54.4 mPa·s
323.15 K, 123600 kPa | 64.3 mPa·s
323.15 K, 152800 kPa | 83.6 mPa·s
323.15 K, 200300 kPa | 123.2 mPa·s
323.15 K, 226000 kPa | 151.2 mPa·s
323.15 K, 249600 kPa | 183.2 mPa·s
333.15 K, 100 kPa | 15.4 mPa·s and 15.5 mPa·s
343.15 K, 100 kPa | 12 mPa·s
348.15 K, 100 kPa | 10.6 mPa·s and 10.7 mPa·s
348.15 K, 800 kPa | 10.7 mPa·s
348.15 K, 25700 kPa | 13.4 mPa·s
348.15 K, 50700 kPa | 16.4 mPa·s
348.15 K, 75600 kPa | 19.9 mPa·s
348.15 K, 100900 kPa | 24.2 mPa·s
348.15 K, 125500 kPa | 29 mPa·s
348.15 K, 150600 kPa | 34.6 mPa·s
348.15 K, 175400 kPa | 40.9 mPa·s
348.15 K, 175600 kPa | 41 mPa·s
348.15 K, 200600 kPa | 48.6 mPa·s
348.15 K, 225400 kPa | 57.4 mPa·s
348.15 K, 249700 kPa | 67.3 mPa·s
348.15 K, 274500 kPa | 79 mPa·s
348.15 K, 298900 kPa | 92.6 mPa·s
353.15 K, 100 kPa | 9.53 mPa·s

Settings | mass density
273.15 K | 1460.67 kg/m3
278.15 K | 1455.84 kg/m3
283.15 K | 1451.04 kg/m3
288.15 K | 1446.23 kg/m3
293.15 K | 1441.43 kg/m3 and 1441.42 kg/m3
298.15 K | 1436.64 kg/m3 and 1436.6 kg/m3
303.15 K | 1431.86 kg/m3
313.15 K | 1422.34 kg/m3
323.15 K | 1412.87 kg/m3 and 1412.85 kg/m3
333.15 K | 1403.48 kg/m3
343.15 K | 1394.15 kg/m3
353.15 K | 1384.88 kg/m3
363.15 K | 1375.67 kg/m3

CCCCCCn1cc[n+](C)c1.F[P-](F)(F)(F)(F)F [1-hexyl-3-methylimidazolium hexafluorophosphate]
Settings | viscosity
273.15 K, 100 kPa | 3924 mPa·s
278.15 K, 100 kPa | 2428 mPa·s
283.15 K, 100 kPa | 1566 mPa·s and 1565 mPa·s
288.15 K, 100 kPa | 1036 mPa·s and 1035 mPa·s
293.15 K, 100 kPa | 705.1 mPa·s
298.15 K, 100 kPa | 496.4 mPa·s and 496.5 mPa·s
298.15 K, 22000 kPa | 685.3 mPa·s
298.15 K, 42100 kPa | 917.7 mPa·s
298.15 K, 60300 kPa | 1190 mPa·s
298.15 K, 80300 kPa | 1572 mPa·s
298.15 K, 100100 kPa | 2064 mPa·s
303.15 K, 100 kPa | 356.9 mPa·s and 356.8 mPa·s
313.15 K, 100 kPa | 197 mPa·s
313.15 K, 400 kPa | 197.3 mPa·s
313.15 K, 25700 kPa | 276.7 mPa·s
313.15 K, 50800 kPa | 381.8 mPa·s
313.15 K, 76000 kPa | 521.9 mPa·s
313.15 K, 101400 kPa | 708.3 mPa·s
313.15 K, 125200 kPa | 939.3 mPa·s
313.15 K, 150000 kPa | 1254 mPa·s
323.15 K, 100 kPa | 119.2 mPa·s and 117 mPa·s
323.15 K, 7600 kPa | 118.3 mPa·s
323.15 K, 25800 kPa | 161.7 mPa·s
323.15 K, 50600 kPa | 217.1 mPa·s
323.15 K, 76000 kPa | 290.7 mPa·s
323.15 K, 100900 kPa | 384 mPa·s
323.15 K, 125800 kPa | 503.9 mPa·s
323.15 K, 150100 kPa | 655 mPa·s
323.15 K, 174800 kPa | 850.1 mPa·s
333.15 K, 100 kPa | 75.2 mPa·s and 74.4 mPa·s
333.15 K, 40500 kPa | 118.5 mPa·s
333.15 K, 80800 kPa | 182.8 mPa·s
333.15 K, 120800 kPa | 275.7 mPa·s
333.15 K, 160600 kPa | 408.7 mPa·s
333.15 K, 200100 kPa | 598.9 mPa·s
343.15 K, 100 kPa | 49.7 mPa·s
348.15 K, 100 kPa | 41.3 mPa·s
348.15 K, 800 kPa | 41.9 mPa·s
348.15 K, 40700 kPa | 63.7 mPa·s
348.15 K, 80800 kPa | 94.2 mPa·s
348.15 K, 120700 kPa | 136.4 mPa·s
348.15 K, 160600 kPa | 194.8 mPa·s
348.15 K, 200200 kPa | 274.5 mPa·s
348.15 K, 238500 kPa | 378 mPa·s
353.15 K, 100 kPa | 34.8 mPa·s

Settings | mass density
273.15 K | 1313.39 kg/m3
278.15 K | 1309.33 kg/m3
283.15 K | 1305.29 kg/m3
288.15 K | 1301.26 kg/m3
293.15 K | 1297.24 kg/m3
298.15 K | 1293.22 kg/m3
303.15 K | 1289.21 kg/m3
313.15 K | 1281.17 kg/m3
323.15 K | 1273.44 kg/m3
333.15 K | 1265.69 kg/m3 and 1265.68 kg/m3
343.15 K | 1257.96 kg/m3
353.15 K | 1250.28 kg/m3
363.15 K | 1242.64 kg/m3

Reference: the NIST ThermoML archive (doi:10.1021/je700032n)
